# Measured values from publication PMC7041945, “Misfolded proteins bind and activate death receptor 5 to trigger apoptosis during unresolved endoplasmic reticulum stress” (eLife, 2020).
# Key:
# [1] = test system: caspase 8 in HCT116 lysates; experiment: Caspase 8 activity (caspase glo 8) of cell lysates / IP inputs; format: cell-based, Homo sapiens; conditions: for Caspase 8 activity, fold change relative to GFP: AVG (n = 3 tech reps); for AVG fold change relative to GFP: average over lysate dilutions
# Procedure: Cells harvested from a 6-well plate were resuspended in 100 μl of lysis buffer (30 mM HEPES pH 7.2, 150 mM NaCl, 1% Triton X-100) and lysed via needle shearing (25G, 10 passes) followed by a 30 min incubation on ice. Supernatant was collected after centrifuging at 1000xg for 5 min. For the caspase activity assay, 10 μl of supernatant diluted with lysis buffer (1:25, 1:50, 1:100 to stay within linear range of luminescence measurements) was incubated with 10 μl of the luminogenic caspase glo 8 substrate (Promega #PRG8200) in a 384-white walled plate (Corning 3574) for 45 min at RT before measuring luminescence on a Spectramax-M5 plate reader.
# HCT116 cells = experiment: Annexin V (and SytoxBlue) flow cytometry for apoptosis; format: cell-based, Homo sapiens; conditions: for Annexin V +, Sytox Blue + cells / Annexin V +, Sytox Blue - cells / Annexin V -, Sytox Blue - cells: transfected 24 hr
# Procedure: Cells seeded in a 6-well plate were transfected with the specified plasmid for 24 hr and harvested via trypsinization in complete media to allow a 30 min recovery at 37°C. The samples were then centrifuged at 500xg for 5 min and resuspended In 150 μl of a 1:20 dilution of Annexin V-AlexaFluor 647 conjugate (Thermo Scientific #A23204). Samples were transferred to a 96-well U-bottom plate and incubated in the dark for 15 min at RT. The distribution of apoptotic cells was determined by flow cytometry on a BD LSR II.
# GFP (340+341) = experiment: qPCR of GFP transcript (expression of GFP-tagged construct); format: cell-based; conditions: 24 hr, Rep 2
# DR5 = experiment: GFP immunoprecipitation: DR5 (FADD, caspase 8) recovered with GFP-tagged protein, Western blot; format: cell-based, Homo sapiens; conditions: for fraction IP'ed: beads/input
# Procedure: 15 cm dishes were seeded with 4 million HCT116 cells and allowed to recover for 18 hr prior to transfection. Samples were then transfected for 24 hr with the GFP-tagged ER trafficked protein, cytosolic GFP, or empty vector. To harvest apoptotic and living cells for each sample, all media and washes were collected. Cells were scraped in 2 ml of cold PBS and combined with the media and washes. Samples were centrifuged to pellet cells, washed with 1 ml cold PBS, and flash frozen in liquid N2 prior to lysis.
# The cell pellets were resuspended in 750 μl of 30 mM HEPES pH 7.2, 150 mM NaCl, 1% Triton X-100 with 1x Roche protease inhibitor cocktail (if used subsequently for caspase glo 8 assay) or with 5x Roche protease inhibitor cocktail (if used for immunoblotting). The cells were lysed by mechanical shearing through a 25G needle for 13–15 plunges followed by incubation on ice for 30 min. The lysate was centrifuged at 2000xg for 5 min to remove debris and then incubated with 30 μl of GFP-Trap magnetic agarose beads (Chromotek gtma-20) for 4 hr at 4°C. The beads were then washed with 750 μl of lysis buffer for 10 min at 4°C for three rounds.
# For Western blots, samples were eluted by adding 35 μl of non-reducing SDS gel loading buffer (50 mM Tris-HCl (pH 6.8), 2% SDS, 0.1% bromophenol blue, 10% glycerol) and incubated for 10 min at 70°C. The beads were then magnetically removed from the eluted sample before adding DTT to a final concentration of 25 mM. The entire sample was loaded onto the gel and immunoblotted for DR5, caspase 8, and GFP, in that order.
# [2] = empty + Tg, siRNA non-targeting, stain AnnexinV-647, 2018-06-27
# [3] = siRNA scrambled, 2017-01-17 Replicate
# [4] = siRNA scrambled, 2018-06-21 Rep 1
# [5] = siRNA scrambled, 2018-06-21 Rep 2
# [6] = siRNA scrambled, mean of 3 replicates
# [7] = GFP IP, HCT116, average of Rep 1 and Rep 2, SEM in separate column
# [8] = GFP IP, HCT116, band intensity, Rep 1
molecule,measurement,setting,value
"C/C=C(/C)C(=O)O[C@H]1C(C)=C2[C@H]([C@@H]1OC(=O)CCCCCCC)[C@@](C)(OC(C)=O)C[C@H](OC(=O)CCC)[C@@]1(O)[C@H]2OC(=O)[C@@]1(C)O [thapsigargin, reference compound]",average fold change relative to empty,"[1]; HCT116, rep 1, no siRNA named, average of 4 dilutions",1.771 fold change
same,fold change relative to empty,"[1]; input, dilution 0.01, rep1",1.802
same,fold change relative to empty,"[1]; input, dilution 0.01, rep2",2.141
same,fold change relative to empty,"[1]; input, dilution 0.01, rep3",1.451
same,fold change relative to empty,"[1]; input, dilution 0.02, rep1",2.44
same,fold change relative to empty,"[1]; input, dilution 0.02, rep2",1.968
same,fold change relative to empty,"[1]; input, dilution 0.02, rep3",1.816
same,avg fold change,"[1]; input, dilution 0.02, second listing, relative to avg. empty, average of rep1-rep3",2.105
same,fold change relative to empty,"[1]; input, dilution 0.02, second listing, rep2",1.992
same,fold change relative to empty,"[1]; input, dilution 0.02, second listing, rep3",1.959
same,AnnexinV+ (Statistic),HCT116 cells; [2],18.2
same,AnnexinV- (Statistic),HCT116 cells; [2],81.8
same,Difference between means,HCT116 cells; empty w Tg vs. empty,28 ± 7.5
same,"Mean ± SEM (Prism T-tests, Annexin V for MPZ-GFP)","HCT116 cells; no siDR5, mean ± SEM, N=3, values agree with avg Annexin V+",35 ± 6.7 N=3
same,Annexin V+,HCT116 cells; [3],48.1
same,Annexin V-,HCT116 cells; [3],51.9
same,"AnnexinV+ (Statistic, single cells)","HCT116 cells; siRNA scrambled, 2018-01-17 MPZ, gate all cells/Single Cells/AnnexinV+, Tg sample with empty construct",48.1
same,"AnnexinV- (Statistic, single cells)","HCT116 cells; siRNA scrambled, 2018-01-17 MPZ, gate all cells/Single Cells/AnnexinV-, Tg sample with empty construct",51.9
same,"GFP+ (Statistic, single cells)","HCT116 cells; siRNA scrambled, 2018-01-17 MPZ, gate all cells/Single Cells/GFP+, Tg sample with empty construct",0.011
same,"GFP- (Statistic, single cells)","HCT116 cells; siRNA scrambled, 2018-01-17 MPZ, gate all cells/Single Cells/GFP-, Tg sample with empty construct",100
same,"Q1: APC-A- , DAPI-A+ (Statistic, single cells)","HCT116 cells; siRNA scrambled, 2018-01-17 MPZ, gate all cells/Single Cells/Q1, Tg sample with empty construct",10.8
same,"Q2: APC-A+ , DAPI-A+ (Statistic, single cells)","HCT116 cells; siRNA scrambled, 2018-01-17 MPZ, gate all cells/Single Cells/Q2, Tg sample with empty construct",31.2
same,"Q3: APC-A+ , DAPI-A- (Statistic, single cells)","HCT116 cells; siRNA scrambled, 2018-01-17 MPZ, gate all cells/Single Cells/Q3, Tg sample with empty construct",13.1
same,"Q4: APC-A- , DAPI-A- (Statistic, single cells)","HCT116 cells; siRNA scrambled, 2018-01-17 MPZ, gate all cells/Single Cells/Q4, Tg sample with empty construct",45
same,"SytoxBlue+ (Statistic, single cells)","HCT116 cells; siRNA scrambled, 2018-01-17 MPZ, gate all cells/Single Cells/SytoxBlue+, Tg sample with empty construct",40.3
same,"SytoxBlue- (Statistic, single cells)","HCT116 cells; siRNA scrambled, 2018-01-17 MPZ, gate all cells/Single Cells/SytoxBlue-, Tg sample with empty construct",59.7
same,dead cells (Statistic),"HCT116 cells; siRNA scrambled, 2018-01-17 MPZ, gate dead cells of all events, Tg sample with empty construct",26.5
same,"FITC-A+ (Statistic, dead cells)","HCT116 cells; siRNA scrambled, 2018-01-17 MPZ, gate dead cells/Single Cells/FITC-A+, Tg sample with empty construct",0.016
same,"FITC-A- (Statistic, dead cells)","HCT116 cells; siRNA scrambled, 2018-01-17 MPZ, gate dead cells/Single Cells/FITC-A-, Tg sample with empty construct",100
same,Annexin V+,HCT116 cells; [4],32.2
same,Annexin V-,HCT116 cells; [4],67.8
same,Annexin V+,HCT116 cells; [5],25.7
same,Annexin V-,HCT116 cells; [5],74.3
same,avg Annexin V+,HCT116 cells; [6],35.3333
same,avg Annexin V-,HCT116 cells; [6],64.6667
same,avg. fold induction GFP (340+341),"GFP (340+341); relative to empty traffo, mean of 3 replicates",0.3377
same,fold induction GFP (340+341),"GFP (340+341); relative to empty traffo, replicate 1",0.335
same,fold induction GFP (340+341),"GFP (340+341); relative to empty traffo, replicate 2",0.3372
same,fold induction GFP (340+341),"GFP (340+341); relative to empty traffo, replicate 3",0.341
same,2^-(deltaCq) GFP (340+341),GFP (340+341); replicate 1,5.66e-5
same,Cq GFP (340+341),GFP (340+341); replicate 1,32.8608
same,"Cq(sample) - avg Cq(GAPDH), GFP (340+341)",GFP (340+341); replicate 1,14.1088
same,2^-(deltaCq) GFP (340+341),GFP (340+341); replicate 2,5.698e-5
same,Cq GFP (340+341),GFP (340+341); replicate 2,32.8514
same,"Cq(sample) - avg Cq(GAPDH), GFP (340+341)",GFP (340+341); replicate 2,14.0993
same,2^-(deltaCq) GFP (340+341),GFP (340+341); replicate 3,5.761e-5
same,Cq GFP (340+341),GFP (340+341); replicate 3,32.8353
same,"Cq(sample) - avg Cq(GAPDH), GFP (340+341)",GFP (340+341); replicate 3,14.0832
"FTWRYQPEGGRDAISIFHYA [MPZ-ecto peptide-eGFP, expressed construct: MPZ ectodomain replaced by the MPZ-ecto peptide, GFP-tagged]","Caspase 8 activity, fold change relative to GFP","[1]; Rep 1, HCT116, ecto 400 ng, YYEE and Arom-to-E 200 ng",2.6
same,"Caspase 8 activity, fold change relative to GFP","[1]; Rep 2, HCT116, ecto 400 ng, YYEE and Arom-to-E 200 ng",2.183
same,AVG fold change relative to GFP,"[1]; Rep 2, HCT116",2.183 fold
same,"Caspase 8 activity, fold change relative to GFP","[1]; Rep 3, HCT116, ecto 400 ng, YYEE and Arom-to-E 200 ng",2.309
same,AVG fold change relative to GFP,"[1]; Rep 3, HCT116",2.309 fold
same,"Caspase 8 activity, fold change relative to GFP, avg of biological replicates","[1]; avg of n = 3 biol rep, HCT116, ecto 400 ng, YYEE and Arom-to-E 200 ng, SEM of n = 3 in own column",2.364
same,"% IP'ed, average",DR5; [7],7.7348%
same,"fraction IP'ed, average",DR5; [7],0.07735
same,input (*dilution factor),"DR5; GFP IP, HCT116, band intensity, background subtracted, divided by dilution factor 0.1, Rep 2",64608140
same,beads (*dilution factor),"DR5; GFP IP, HCT116, band intensity, background subtracted, divided by dilution factor 0.25, Rep 2",5226200
same,beads (*diluton factor),DR5; [8],10106176
same,input (*dilution factor),DR5; [8],136930440
same,fraction IP'ed,"DR5; GFP IP, HCT116, Rep 1",0.07381
same,fraction IP'ed,"DR5; GFP IP, HCT116, Rep 2",0.08089
same,Mean ± SEM of fraction IP'ed,"DR5; GFP IP, HCT116, n=2, from unpaired t test sheet","0.07735 ± 0.003543, n=2"
same,DR5 complex proteins in GFP immunoprecipitates,"DR5; HCT116, 24 hr post-transfection",enriched for DR5 relative to the Glu-containing mutant peptides
same,DR5 beads (*diluton factor),"DR5; Rep 1, DR5 blot densitometry of beads (GFP IP), background subtracted, adjusted for dilution factor 0.25",10106176
same,DR5 input (*dilution factor),"DR5; Rep 1, DR5 blot densitometry of input, background subtracted, adjusted for dilution factor 0.1",136930440
same,DR5 fraction IP'ed,"DR5; Rep 1, GFP IP, beads over input",0.07381
same,annexin V staining,"HCT116 cells; HCT116, 24 hr, relative to empty vector or WT",increased annexin V staining relative to the empty vector
same,"Annexin V +, Sytox Blue + cells",HCT116 cells; + z-VAD,8.37% of cells
same,"Annexin V +, Sytox Blue - cells",HCT116 cells; + z-VAD (20 μm [sic]),3.77% of cells
same,"Annexin V -, Sytox Blue - cells",HCT116 cells; + z-VAD (20 μm [sic]),86.3% of cells
same,"Annexin V +, Sytox Blue + cells",HCT116 cells; no z-VAD,19.1% of cells
same,"Annexin V +, Sytox Blue - cells",HCT116 cells; no z-VAD,11.5% of cells
same,"Annexin V -, Sytox Blue - cells",HCT116 cells; no z-VAD,65.3% of cells
